Source: ChEMBL document CHEMBL1201862, “PubChem BioAssay data set” (2004)
Activity calls are given as the source filed them. Rule as the data show it, for most assays here: actives have a measured EC50 and inactives only a lower limit.

Tests used:
[1] = tested on: Streptococcus; assay: GAS UMAA2166 growth inhibition – luminescence, BacTiterGlo, counter-screen for streptokinase expression inhibitor project, dose response (AID 1915); format: functional, organism-based;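 also: potency for reduction of bacterial viability or growth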
[2] = viability loss in Vero cells – cytotoxicity control for Vif-APOBEC3G degradation inhibitor project, dose response (AID 1117358); format: functional; conditions: Vero
[3] = target: T1, Zinc finger protein mex-5 (Caenorhabditis elegans, UniProt Q9XUB2); assay: potency of MEX-5 RNA-binding blockers – biochemical, C. elegans, fluorescence polarization, dose response (AID 1960)
T1 sequence (Q9XUB2 whole entry): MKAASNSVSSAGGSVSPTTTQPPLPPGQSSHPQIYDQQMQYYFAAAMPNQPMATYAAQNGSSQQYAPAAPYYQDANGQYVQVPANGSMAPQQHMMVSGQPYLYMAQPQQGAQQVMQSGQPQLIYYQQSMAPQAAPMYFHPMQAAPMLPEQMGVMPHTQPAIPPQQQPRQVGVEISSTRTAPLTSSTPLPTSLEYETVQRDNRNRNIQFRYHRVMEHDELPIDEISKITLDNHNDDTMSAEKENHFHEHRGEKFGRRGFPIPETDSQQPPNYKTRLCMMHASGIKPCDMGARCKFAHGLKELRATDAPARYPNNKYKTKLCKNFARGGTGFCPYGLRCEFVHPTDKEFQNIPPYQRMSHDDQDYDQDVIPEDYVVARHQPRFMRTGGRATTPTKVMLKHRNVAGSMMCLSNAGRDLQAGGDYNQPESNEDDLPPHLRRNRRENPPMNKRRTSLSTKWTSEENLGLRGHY

[4] = target: T2, Streptokinase A (Streptococcus pyogenes serotype M1, UniProt P10520); assay: viability-normalized secreted streptokinase activity reduction – plasminogen activation absorbance, OD405, dose response (AID 1914); format: functional, Streptococcus pyogenes M1 GAS;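 also: secreted streptokinase activity via plasminogen activation per viability signal from cell pellet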
T2 sequence (P10520 whole entry): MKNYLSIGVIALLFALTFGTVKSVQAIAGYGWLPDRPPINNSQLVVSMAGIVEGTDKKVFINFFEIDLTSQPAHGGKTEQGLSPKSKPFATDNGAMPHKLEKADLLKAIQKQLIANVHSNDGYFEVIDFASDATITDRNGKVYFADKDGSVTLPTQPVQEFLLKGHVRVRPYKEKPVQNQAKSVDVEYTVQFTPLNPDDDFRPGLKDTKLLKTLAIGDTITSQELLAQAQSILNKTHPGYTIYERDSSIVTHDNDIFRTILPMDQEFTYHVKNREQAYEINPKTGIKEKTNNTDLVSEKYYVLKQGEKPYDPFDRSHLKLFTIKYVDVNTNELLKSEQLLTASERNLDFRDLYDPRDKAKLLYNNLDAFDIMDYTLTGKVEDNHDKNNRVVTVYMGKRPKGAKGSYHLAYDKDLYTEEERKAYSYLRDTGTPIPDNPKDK

[5] = target: Sphingosine 1-phosphate receptor 2 (Homo sapiens, UniProt O95136); assay: Dose Response Cell Based Assay for Antagonists of the S1P2 Receptor. [Related pubchem assays: 856, 736 ]; format: functional
Sphingosine 1-phosphate receptor 2, sequence (O95136 whole entry, the tested form may be a part): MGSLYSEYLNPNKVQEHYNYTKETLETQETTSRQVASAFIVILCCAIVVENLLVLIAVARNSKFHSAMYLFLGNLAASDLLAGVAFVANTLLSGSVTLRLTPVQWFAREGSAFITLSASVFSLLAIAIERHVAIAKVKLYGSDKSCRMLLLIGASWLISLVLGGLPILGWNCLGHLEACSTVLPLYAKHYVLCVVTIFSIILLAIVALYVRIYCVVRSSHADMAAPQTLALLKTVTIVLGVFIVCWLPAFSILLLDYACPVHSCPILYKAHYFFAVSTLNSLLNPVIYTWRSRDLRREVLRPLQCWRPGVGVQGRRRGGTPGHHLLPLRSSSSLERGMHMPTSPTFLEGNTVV

[6] = target: T3, RNA-binding protein pos-1 (Caenorhabditis elegans, UniProt G5EF15); assay: disruptors of C. elegans POS-1 RNA interaction – biochemical, fluorescence polarization, dose response (AID 1964);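 also: purified POS-1 fused to maltose binding protein made in E. coli; potency of compounds blocking POS-1 binding to fluorescent RNA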
T3 sequence (G5EF15 whole entry): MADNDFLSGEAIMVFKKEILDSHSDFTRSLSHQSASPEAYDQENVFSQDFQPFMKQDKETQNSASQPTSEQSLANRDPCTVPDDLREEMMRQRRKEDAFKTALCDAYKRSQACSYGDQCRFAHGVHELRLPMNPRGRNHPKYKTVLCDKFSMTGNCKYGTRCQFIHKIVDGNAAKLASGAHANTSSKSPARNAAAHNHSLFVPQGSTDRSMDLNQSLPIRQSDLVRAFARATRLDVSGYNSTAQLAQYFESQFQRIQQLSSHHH

[7] = tested on: Streptococcus sp. 'group A'; assay: Streptococcus pyogenes SK(-)GAS viability under kanamycin – luminescence, BacTiterGlo, confirmation, counter-screen for streptokinase expression inhibitor project, dose response (AID 1900); format: functional, organism-based
[8] = tested on: Danio rerio; assay: In Vivo Angiogenesis Dose-Response Confirmation. [Related pubchem assays: 732 (Assay preceding this confirmatory assay.)]; format: functional, organism-based
[9] = Luminescence Cell-Based Dose Response to Identify Activators of 5'UTR Stem-Loop Driven Prion Protein mRNA Translation in H4-C Neuroglioblastoma Cells. [Related pubchem assays: 1829 (Project Summary), 1814 (Primary HTS)]; format: functional
[10] = tested on: H4; assay: Luminescence Cell-Based Dose Response HTS to Identify Activators of 5'UTR Stem-Loop Driven Prion Protein mRNA Translation in H4 Neuroglioblastoma Cells. [Related pubchem assays: 1829 (Project Summary), 1814 (Primary HTS)]; format: functional; conditions: Homo sapiens
[11] = Luminescence Cell-Based Dose Response to Identify Activators of Luciferase Translation or Activity in H4-C Neuroglioblastoma Cells. [Related pubchem assays: 1829 (Project Summary), 1814 (Primary HTS)]; format: functional
[12] = Luminescence Cell-Based Dose Confirmation to Identify Activators of 5'UTR Stem-Loop Driven Alpha-Synuclein mRNA Translation in H4 Neuroglioblastoma Cells. [Related pubchem assays: 1829 (Project Summary), 1814 (Primary HTS)]; format: functional
[13] = Luminescence Cell-Based Dose Response HTS to Identify Activators of Luciferase Translation or Activity in H4 […] Cells. [Related pubchem assays: 1829 (Project Summary), 1814 (Primary HTS)]; format: functional
[14] = HIV-1 Vif–A3G interaction blockers – biochemical, TR-FRET, GST-Vif 1-94, biotin-A3G peptide, dose response retest, primary screen (AID 1117319); format: functional;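 also: TR-FRET signal of purified GST-Vif binding a biotinylated A3G peptide; inhibitors lower the FRET signal by blocking Vif and A3G binding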
[15] = tested on: Escherichia coli; assay: microbe, parasite or virus in culture
[16] = M. tuberculosis growth inhibition, HTS (AID 449762); format: functional

Structure (SMILES): Cc1cccc(NC2=Nc3ccccc3N3C2=Nc2c(c(C)nn2-c2ccccc2)C3c2ccc(O)c(O)c2)c1 (stereo unspecified)
- EC50 [1]: 3.2 µM (active)
- CC50 [2]: 17.4 µM (active)
- EC50 [3]: 28.3 µM (active)
- EC50 [4]: > 150 µM (not active)
- IC50 [5]: 4.37 µM (active)
- EC50 [6]: 46.4 µM (active)
- EC50 [7]: 1.54 µM (active)

Structure (SMILES): O=C1Nc2ccccc2/C1=C1/Nc2ccc(Br)cc2/C1=N\O
- IC50 [8]: > 10 µM (not active)

Structure (SMILES): O=C(Nc1ccc2oc(=O)ccc2c1)c1cc2ccccc2o1
- EC50 [9]: 0.579 µM (active)
- EC50 [10]: > 120 µM (not active)
- EC50 [11]: 0.317 µM (active)
- EC50 [12]: 0.304 µM (active)
- EC50 [13]: < 0.1 µM (active)

Structure (SMILES): COc1ccc(S(=O)(=O)NCCSCc2ccco2)cc1Cl
- IC50 [14]: > 100 µM (active)
- AC50 [15]: 43.2 µM (active)

Structure (SMILES): O=C(O)c1ccccc1C(=O)NNc1ccc(Cl)cc1Cl
- IC50 [16]: > 100 µM (active)
